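Five compound concentrations were applied to cells in 96-well plates for 48 hours; endpoints were derived by simple linear interpolation of the resulting dose-response curve. GI50 = concentration required for 50% inhibition of growth. The concentration for full growth arrest is given as TGI.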
Tests used:
Assay in all cases: NCI anticancer screen, dose series, 48 h; in the data active = GI50 below about 0.43 µM; inactive = the rest
K-562 leukemia = tested on: K-562 leukemia
UACC-62 melanoma = tested on: UACC-62 melanoma
IGROV1 ovarian = tested on: IGROV1 ovarian
786-0 renal = tested on: 786-0 renal
SN12C renal = tested on: SN12C renal
HCC-2998 colon = tested on: HCC-2998 colon
MOLT-4 leukemia = tested on: MOLT-4 leukemia
HL-60(TB) leukemia = tested on: HL-60(TB) leukemia
A549 NSCLC = tested on: A549 NSCLC
BT-549 breast = tested on: BT-549 breast
SK-MEL-2 melanoma = tested on: SK-MEL-2 melanoma
MALME-3M melanoma = tested on: MALME-3M melanoma
NCI-H23 lung = tested on: NCI-H23 lung
SK-OV-3 ovarian = tested on: SK-OV-3 ovarian
CAKI-1 renal = tested on: CAKI-1 renal
MCF7 breast = tested on: MCF7 breast
MDA-MB-468 breast = tested on: MDA-MB-468 breast
SK-MEL-28 melanoma = tested on: SK-MEL-28 melanoma
EKVX NSCLC = tested on: EKVX NSCLC
SF-268 CNS = tested on: SF-268 CNS
RXF 393 renal = tested on: RXF 393 renal
RPMI-8226 leukemia = tested on: RPMI-8226 leukemia
NCI/ADR-RES ovarian = tested on: NCI/ADR-RES ovarian
HCT-116 colon = tested on: HCT-116 colon
NCI-H460 lung = tested on: NCI-H460 lung
DU-145 prostate = tested on: DU-145 prostate
SF-295 CNS = tested on: SF-295 CNS
MDA-MB-231 breast = tested on: MDA-MB-231 breast
A498 renal = tested on: A498 renal
SF-539 CNS = tested on: SF-539 CNS
COLO 205 colon = tested on: COLO 205 colon
LOX IMVI melanoma = tested on: LOX IMVI melanoma
HT29 colon = tested on: HT29 colon
PC-3 prostate = tested on: PC-3 prostate
HS 578T breast = tested on: HS 578T breast
OVCAR-5 ovarian = tested on: OVCAR-5 ovarian
OVCAR-8 ovarian = tested on: OVCAR-8 ovarian
HOP-92 NSCLC = tested on: HOP-92 NSCLC
SK-MEL-5 melanoma = tested on: SK-MEL-5 melanoma
HOP-62 NSCLC = tested on: HOP-62 NSCLC
UO-31 renal = tested on: UO-31 renal
MDA-MB-435 = tested on: MDA-MB-435
NCI-H522 lung = tested on: NCI-H522 lung
UACC-257 melanoma = tested on: UACC-257 melanoma
SW-620 colon = tested on: SW-620 colon
HCT-15 colon = tested on: HCT-15 colon
SNB-75 CNS = tested on: SNB-75 CNS
OVCAR-4 ovarian = tested on: OVCAR-4 ovarian
TK-10 renal = tested on: TK-10 renal
ACHN renal = tested on: ACHN renal
KM12 colon = tested on: KM12 colon
OVCAR-3 ovarian = tested on: OVCAR-3 ovarian
M14 melanoma = tested on: M14 melanoma
CCRF-CEM leukemia = tested on: CCRF-CEM leukemia
SR leukemia = tested on: SR leukemia
U251 CNS = tested on: U251 CNS
SNB-19 CNS = tested on: SNB-19 CNS
T-47D breast = tested on: T-47D breast
NCI-H226 lung = tested on: NCI-H226 lung

N#Cc1ccc(C(=O)CSc2nc3c(c(Nc4ccc(S(N)(=O)=O)cc4)n2)CCC3)cc1
> 22.5 µM: TGI (K-562 leukemia) | TGI (UACC-62 melanoma) | TGI (IGROV1 ovarian) | TGI (786-0 renal) | TGI (SN12C renal) | TGI (HCC-2998 colon) | TGI (MOLT-4 leukemia) | TGI (HL-60(TB) leukemia) | TGI (A549 NSCLC) | TGI (BT-549 breast) | TGI (SK-MEL-2 melanoma) | TGI (MALME-3M melanoma) | TGI (NCI-H23 lung) | TGI (SK-OV-3 ovarian) | TGI (CAKI-1 renal) | TGI (MCF7 breast) | TGI (MDA-MB-468 breast) | TGI (SK-MEL-28 melanoma) | TGI (EKVX NSCLC) | TGI (SF-268 CNS) | TGI (RXF 393 renal) | TGI (RPMI-8226 leukemia) | TGI (NCI/ADR-RES ovarian) | TGI (HCT-116 colon) | TGI (NCI-H460 lung) | TGI (DU-145 prostate) | TGI (SF-295 CNS) | TGI (MDA-MB-231 breast) | TGI (A498 renal) | TGI (SF-539 CNS) | TGI (COLO 205 colon) | TGI (LOX IMVI melanoma) | TGI (HT29 colon) | TGI (PC-3 prostate) | TGI (HS 578T breast) | TGI (OVCAR-5 ovarian) | TGI (OVCAR-8 ovarian) | TGI (HOP-92 NSCLC) | TGI (SK-MEL-5 melanoma) | TGI (HOP-62 NSCLC) | TGI (UO-31 renal) | TGI (MDA-MB-435) | TGI (NCI-H522 lung) | TGI (UACC-257 melanoma) | TGI (SW-620 colon) | TGI (HCT-15 colon) | TGI (SNB-75 CNS) | TGI (OVCAR-4 ovarian) | TGI (TK-10 renal) | TGI (ACHN renal) | TGI (KM12 colon) | TGI (OVCAR-3 ovarian) | TGI (M14 melanoma) | TGI (CCRF-CEM leukemia) | TGI (SR leukemia) | TGI (U251 CNS) | TGI (SNB-19 CNS) | TGI (T-47D breast) | TGI (NCI-H226 lung)
inactive: GI50 (K-562 leukemia) > 22.5 µM | GI50 (UACC-62 melanoma) > 22.5 µM | GI50 (IGROV1 ovarian) > 22.5 µM | GI50 (786-0 renal) > 22.5 µM | GI50 (SN12C renal) > 22.5 µM | GI50 (HCC-2998 colon) > 22.5 µM | GI50 (MOLT-4 leukemia) > 22.5 µM | GI50 (HL-60(TB) leukemia) > 22.5 µM | GI50 (A549 NSCLC) > 22.5 µM | GI50 (BT-549 breast) > 22.5 µM | GI50 (SK-MEL-2 melanoma) > 22.5 µM | GI50 (MALME-3M melanoma) > 22.5 µM | GI50 (NCI-H23 lung) > 22.5 µM | GI50 (SK-OV-3 ovarian) > 22.5 µM | GI50 (CAKI-1 renal) > 22.5 µM | GI50 (MCF7 breast) > 22.5 µM | GI50 (MDA-MB-468 breast) > 22.5 µM | GI50 (SK-MEL-28 melanoma) > 22.5 µM | GI50 (EKVX NSCLC) > 22.5 µM | GI50 (SF-268 CNS) > 22.5 µM | GI50 (RXF 393 renal) > 22.5 µM | GI50 (RPMI-8226 leukemia) > 22.5 µM | GI50 (NCI/ADR-RES ovarian) > 22.5 µM | GI50 (HCT-116 colon) > 22.5 µM | GI50 (NCI-H460 lung) > 22.5 µM | GI50 (DU-145 prostate) > 22.5 µM | GI50 (SF-295 CNS) > 22.5 µM | GI50 (MDA-MB-231 breast) > 22.5 µM | GI50 (A498 renal) > 22.5 µM | GI50 (SF-539 CNS) > 22.5 µM | GI50 (COLO 205 colon) > 22.5 µM | GI50 (LOX IMVI melanoma) > 22.5 µM | GI50 (HT29 colon) > 22.5 µM | GI50 (PC-3 prostate) > 22.5 µM | GI50 (HS 578T breast) > 22.5 µM | GI50 (OVCAR-5 ovarian) > 22.5 µM | GI50 (OVCAR-8 ovarian) > 22.5 µM | GI50 (HOP-92 NSCLC) > 22.5 µM | GI50 (SK-MEL-5 melanoma) > 22.5 µM | GI50 (HOP-62 NSCLC) > 22.5 µM | GI50 (UO-31 renal) > 22.5 µM | GI50 (MDA-MB-435) > 22.5 µM | GI50 (NCI-H522 lung) > 22.5 µM | GI50 (UACC-257 melanoma) > 22.5 µM | GI50 (SW-620 colon) > 22.5 µM | GI50 (HCT-15 colon) > 22.5 µM | GI50 (SNB-75 CNS) > 22.5 µM | GI50 (OVCAR-4 ovarian) > 22.5 µM | GI50 (TK-10 renal) > 22.5 µM | GI50 (ACHN renal) > 22.5 µM | GI50 (KM12 colon) > 22.5 µM | GI50 (OVCAR-3 ovarian) > 22.5 µM | GI50 (M14 melanoma) > 22.5 µM | GI50 (CCRF-CEM leukemia) > 22.5 µM | GI50 (SR leukemia) > 22.5 µM | GI50 (U251 CNS) > 22.5 µM | GI50 (SNB-19 CNS) > 22.5 µM | GI50 (T-47D breast) > 22.5 µM | GI50 (NCI-H226 lung) > 22.5 µM

— PubChem BioAssay (NCI)
